Measured values taken from patent US8889660B2, “Methods for treating obesity or an obesity related condition” (Case Western Reserve University, priority 2010, dated 2014).
“Also recorded” adds a separate entry of the source.

How the values were obtained:
[1] = target: retinol binding protein 4 (RBP4) (Homo sapiens, UniProt P02753); test: Binding to RBP4 by fluorescence quenching; conditions: FIG. 9
Text: FIG. 9 is a series of graphs showing the binding of (R)-all-trans-13,14-dihydroretinol and (S)-all-trans-13,14-dihydroretinol to RBP4, as determined by fluorescence quenching.
In another aspect of the present invention, the marker corresponding to the level and/or activity of an all-trans-retinol:all-trans-13,14-dihydroretinol saturase polypeptide may comprise a metabolite, such as a retinoid, associated with all-trans-retinol:all-trans-13,14-dihydroretinol saturase activity. The marker can include, for example, a retinoid having a saturated C13-14 double bond. More particularly, the retinoid having a saturated C13-14 double bond can include all-trans-13,14-dihydroretinol and/or all-trans-13,14-dihydrotretinoic acid. […] Increased levels of RBP4 are associated with the metabolic syndrome, diabetic disease and correlate with increased insulin resistance, obesity and visceral adiposity. Various techniques known in the art may be used to detect dihydroretinoid metabolite levels in a tissue sample, including, but not limited to, chromatography-based methods, electrophoresis and sedimentation, mass spectroscopy, and/or antibody-based methods. […]

[2] = tested on: retinoic acid receptor (RAR); test: Activation of retinoic acid response element (RARE) / RAR; type: cell-based; conditions: FIGS. 1A-B, 7 and 8
Text: FIG. 7 is a histogram showing the activation of retinoic acid response element (RARE) by all-trans-retinol (ROL), (13R)-all-trans-13,14-dihydroretinol (DROL R) and (13S)-all-trans-13,14-dihydroretinol (DROL S);
FIG. 8 is a histogram showing the activation of retinoic acid response element (RARE) by all-trans-retinoic acid (RA), (13R)-all-trans-13,14-dihydroretinoic acid (DRA R) and (13S)-all-trans-13,14-dihydroretinoic acid (DRA S); and
The at least one receptor may also include a retinoic acid receptor (RAR), such as RAR-α, RAR-β and RAR-γ which, when activated, translocates to a cell nucleus, binds to hormone response element on DNA, and elicits expression or transexpresssion of gene products. Alternatively, at least one response element, such as the RAR response element (RARE), can be activated.

[3] = tested on: wild type mice; test: Injection in wild type mice, glycemia; type: in vivo
[4] = target: T1, G-protein-coupled receptor 40 (GPR40) (Homo sapiens, UniProt O14842); test: Calcium responses of GPR40-expressing cells (receptor screening); type: cell-based; conditions: calcium responses of GPR40 and Ga16 cells, FIGS. 1A-B
T1 construct: expressed in transfected cells; host or cells: GPR40-expressing recombinant cells
T1 sequence (O14842 whole entry, species assumed): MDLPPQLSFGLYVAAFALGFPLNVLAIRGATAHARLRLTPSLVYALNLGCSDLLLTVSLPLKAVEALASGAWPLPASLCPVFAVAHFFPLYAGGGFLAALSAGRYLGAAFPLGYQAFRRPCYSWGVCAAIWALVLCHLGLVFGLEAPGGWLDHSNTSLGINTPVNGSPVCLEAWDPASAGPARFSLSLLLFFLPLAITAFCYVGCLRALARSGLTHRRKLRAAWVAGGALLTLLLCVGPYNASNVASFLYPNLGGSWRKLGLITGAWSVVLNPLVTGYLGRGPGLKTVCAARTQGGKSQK
Description: FIGS. 1A-B are a series of histographs showing the screening of potential receptors for all-trans-13,14-dihydroretinoic acid. FIG. 1A is a histogram showing calcium responses of G-protein-coupled receptor 40 and Ga16 cells to 100 μM fatty acids and retinoic acids. FIG. 2A is a histogram showing calcium responses to retinoic acid compounds at 10 μM;
The activation of GPR40 by all-trans-13,14-dihydroretinoic acid is studied in vitro by measuring the calcium flux and internalization of GPR40 in response to all-trans-13,14-dihydroretinoic in GPR40-expressing recombinant cells. In collaboration with Dr. de Lera University of Vigo, Spain, we have produced synthetic enantiomerically pure (R) or (S) all-trans-13,14-dihydroretinol and all-trans-13,14-dihydroretinoic acid and we have determined the stereospecificity of the RetSat catalyzed reaction. Activation of GPR40 by all-trans-13,14-dihydroretinoic acid leading to secretion of insulin is studied by measuring the level of secreted insulin from INS-1 insulinoma cells or from primary pancreatic β-cells primed with all-trans-13,14-dihydroretinoic acid.

| Compound | binding to RBP4 [1] | activation of retinoic acid receptor (RAR/RARE) [2] | effect on blood glucose after injection [3] | activation of GPR40 [4] |
| --- | --- | --- | --- | --- |
| CC1=C(/C=C/C(C)=C/C=C/[C@H](C)CCO)C(C)(C)CCC1 [(R)-all-trans-13,14-dihydroretinol, (13R)-13,14-Dihydroretinol] | associated with the carrier protein retinol binding protein 4 (RBP4) | can also activate RAR |  |  |
| CC1=C(/C=C/C(C)=C/C=C/[C@H](C)CC(=O)O)C(C)(C)CCC1 (stereo in doubt) [(R)-all-trans-13,14-dihydroretinoic acid] |  | can activate RAR |  |  |
| CC1=C(/C=C/C(C)=C/C=C/C(C)CCO)C(C)(C)CCC1 (stereo not drawn) [all-trans-13,14-dihydroretinol] |  |  | prolonged hypoglycemia |  |
| CC1=C(/C=C/C(C)=C/C=C/[C@@H](C)CC(=O)O)C(C)(C)CCC1 (stereo in doubt) [(S)-all-trans-13,14-dihydroretinoic acid] |  | can activate RAR |  |  |
| CC1=C(/C=C/C(C)=C/C=C/[C@@H](C)CCO)C(C)(C)CCC1 [(S)-all-trans-13,14-dihydroretinol, (13S)-13,14-Dihydroretinol] | associated with the carrier protein retinol binding protein 4 (RBP4) | can also activate RAR |  |  |
| CC1=C(/C=C/C(C)=C/C=C/C(C)CC(=O)O)C(C)(C)CCC1 (stereo not drawn) [all-trans-13,14-dihydroretinoic acid] |  | activator |  | activator; also recorded: can be activated by all-trans-13,14-dihydroretinoic acid |
